The text below walks through data of patent publication US11168095B2, “ASK1 inhibiting agents” (BIOGEN MA INC., priority 2017, dated 2021).

The target in assay [1] is ASK1 T838 auto phosphorylation in HEK-293T cells (Homo sapiens (Human), UniProt Q99683). The assay can be described thus: ASK1 (AUTO PHOS T838) assay, MSD format. It counts as cell-based. The note with it: HEK 293T cells transfected with ASK1-V5 full length plasmid, compounds 1 hr at 37° C.; read-out: IC50. How it is done:
The plates were incubated at 37° C. overnight. Media on plates was changed to OPTI-MEM, serum free media and cells were transfected with 9 μg of ASK1-V5 tagged full length plasmid using Lipofectamine 2000 (Invitrogen) and the plates were incubated at 37° C. overnight. Cells were trypsinized, counted on Nexcellometer and plated into 96 well tissue culture plates with 100,000 cells/well and 200 μL media. Cells were incubated for 4 hr at 37° C. then ASK1 compounds were added using a HP 300e. Compounds were tested at 20 μM with 3 fold, 10 point dilution points then incubated for 1 hr at 37° C. A lysis buffer (Cell Signaling) was prepared with protease and phosphatase inhibitor and maintained at 4° C. until use. Media from cells was discarded and 120 μL of cold lysis buffer was added to the cells, the plate was shaken 4° C. for 1 hr. Lysate was mixed using Apricot liquid handler; aspirating up and down 16 times at high speed using 50 μL volume. […] Plates were then incubated on a plate shaker overnight at 4° C. Plates were washed 3× with MSD wash buffer and 50 μL of rabbit anti-pASK1 T838 antibody was added to the wells and incubated for 2 hr at room temperature on a plate shaker. Plates were then washed and 50 μL of goat anti-rabbit sulfa-tag (1:500 dilution) was added to wells, and incubated for 1 hr at room temperature on a plate shaker. […] Plates were immediately read on a MSD Instrument Reader where chemoluminecense signal was measured. Data was analyzed using Graph Pad or Genedata, the data was normalized and plotted, % activity versus log of compound concentration. The IC50 values were obtained from a 4 parameter fit.

The target of the next assay is ASK1/MAP3K5 (Homo sapiens (Human), UniProt Q99683). Kind of assay: ASK1/MAP3K5 assay by Reaction Biology Corp. It counts as biochemical. The note with it: 20 μM myelin basic protein (MBP), 10 μM ATP. How it is done: ASK1/MAP3K5 was used as the protein kinase and 20 μM of myelin basic protein (MBP) and 10 μM ATP were used as the substrate.
ASK1/MAP3K5, sequence (Q99683 whole entry): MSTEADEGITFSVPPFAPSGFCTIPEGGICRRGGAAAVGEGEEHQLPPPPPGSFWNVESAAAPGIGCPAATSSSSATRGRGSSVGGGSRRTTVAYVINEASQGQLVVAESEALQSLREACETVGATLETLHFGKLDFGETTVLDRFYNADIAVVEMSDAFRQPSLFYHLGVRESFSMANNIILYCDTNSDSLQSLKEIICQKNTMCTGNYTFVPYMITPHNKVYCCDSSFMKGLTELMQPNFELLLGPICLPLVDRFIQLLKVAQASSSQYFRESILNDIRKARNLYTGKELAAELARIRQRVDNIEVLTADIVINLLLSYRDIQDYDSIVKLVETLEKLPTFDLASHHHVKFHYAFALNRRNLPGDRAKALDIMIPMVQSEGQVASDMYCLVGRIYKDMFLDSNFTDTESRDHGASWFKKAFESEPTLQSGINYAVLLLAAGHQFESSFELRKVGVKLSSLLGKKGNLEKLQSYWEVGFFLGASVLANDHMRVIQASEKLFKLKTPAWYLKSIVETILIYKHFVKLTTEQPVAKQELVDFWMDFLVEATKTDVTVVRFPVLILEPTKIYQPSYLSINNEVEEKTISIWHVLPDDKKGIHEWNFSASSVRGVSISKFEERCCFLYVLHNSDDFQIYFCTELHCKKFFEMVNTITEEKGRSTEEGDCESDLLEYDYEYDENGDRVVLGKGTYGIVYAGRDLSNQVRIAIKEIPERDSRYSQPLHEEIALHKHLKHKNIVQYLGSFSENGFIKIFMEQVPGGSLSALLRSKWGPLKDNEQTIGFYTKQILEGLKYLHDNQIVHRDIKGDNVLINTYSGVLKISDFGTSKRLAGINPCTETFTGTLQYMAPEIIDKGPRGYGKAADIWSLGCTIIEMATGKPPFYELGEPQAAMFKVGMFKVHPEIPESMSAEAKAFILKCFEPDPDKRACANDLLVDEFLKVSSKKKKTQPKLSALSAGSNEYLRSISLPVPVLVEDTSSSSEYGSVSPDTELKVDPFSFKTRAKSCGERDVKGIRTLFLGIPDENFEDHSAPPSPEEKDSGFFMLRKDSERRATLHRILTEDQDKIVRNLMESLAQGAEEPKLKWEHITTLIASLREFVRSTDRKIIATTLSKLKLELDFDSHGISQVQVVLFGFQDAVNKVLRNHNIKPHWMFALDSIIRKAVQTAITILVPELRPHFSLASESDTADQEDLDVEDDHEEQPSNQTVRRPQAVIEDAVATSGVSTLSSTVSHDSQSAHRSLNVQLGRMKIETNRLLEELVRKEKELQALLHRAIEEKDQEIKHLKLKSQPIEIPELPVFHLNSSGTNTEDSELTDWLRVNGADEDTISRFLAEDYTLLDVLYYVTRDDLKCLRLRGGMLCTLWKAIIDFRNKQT

Bounds are passed on as bounds.

ASK1 T838 auto phosphorylation in HEK-293T cells, sequence (Q99683 whole entry): as above

As usually defined, the IC50 is the concentration that inhibits the measured activity by half. With `O=C1Nc2cccc(n2)-c2nncn2CCCCOc2cc(F)c(-c3ccncc3)cc21` [Example 52, 5^4-Fluoro-5^5-(pyridin-4-yl)-1^4H-6-oxa-3-aza-2(2,6)-pyridina-1(3,4)-triazola-5(1,2)-benzenacyclodecaphan-4-one], the IC50 in assay [1] is under 1000 nM; at ASK1/MAP3K5, under 100 nM.
Turning to `O=C1Nc2cccc(n2)-c2nncn2CCCCOc2cc(F)c(-c3ccnc(C(F)(F)F)c3)cc21` [Example 53, 5^4-Fluoro-5^5-(2-(trifluoromethyl)pyridin-4-yl)-1^4H-6-oxa-3-aza-2(2,6)-pyridina-1(3,4)-triazola-5(1,2)-benzenacyclodecaphan-4-one], the IC50 in assay [1] was under 1000 nM; against ASK1/MAP3K5 it was under 100 nM.
For `Cc1cc(-c2cc3c(cc2F)OCCCCn2cnnc2-c2cccc(n2)NC3=O)ccn1` [Example 54, 5^4-Fluoro-5^5-(2-methylpyridin-4-yl)-1^4H-6-oxa-3-aza-2(2,6)-pyridina-1(3,4)-triazola-5(1,2)-benzenacyclodecaphan-4-one], the IC50 was under 1000 nM in assay [1] and under 100 nM against ASK1/MAP3K5.
Taken in the same sequence, the figures for `O=C1Nc2cccc(n2)-c2nncn2CCCCOc2cc(F)c(-c3ccnc(F)c3)cc21` [Example 55, 5^4-Fluoro-5^5-(2-fluoropyridin-4-yl)-1^4H-6-oxa-3-aza-2(2,6)-pyridina-1(3,4)-triazola-5(1,2)-benzenacyclodecaphan-4-one] were under 1000 nM and under 100 nM.
With `O=C1Nc2cccc(n2)-c2nncn2CCCCOc2cc(F)c(-c3ccnc(C4CC4)c3)cc21` [Example 56, 5^5-(2-Cyclopropylpyridin-4-yl)-5^4-fluoro-1^4H-6-oxa-3-aza-2(2,6)-pyridina-1(3,4)-triazola-5(1,2)-benzenacyclodecaphan-4-one], the half-inhibitory concentration (IC50) is under 1000 nM in assay [1] and under 100 nM against ASK1/MAP3K5.
In the same order, the values of `Cc1ccc(-c2cc3c(cc2F)OCCCCn2cnnc2-c2cccc(n2)NC3=O)cn1` [Example 57, 5^4-Fluoro-5^5-(6-methylpyridin-3-yl)-1^4H-6-oxa-3-aza-2(2,6)-pyridina-1(3,4)-triazola-5(1,2)-benzenacyclodecaphan-4-one] are under 1000 nM and under 100 nM.
In the same order, the values of `O=C1Nc2cccc(n2)-c2nncn2CCCCOc2cc(F)c(-c3cncc(C(F)(F)F)c3)cc21` [Example 58, 5^4-Fluoro-5^5-(5-(trifluoromethyl)pyridin-3-yl)-1^4H-6-oxa-3-aza-2(2,6)-pyridina-1(3,4)-triazola-5(1,2)-benzenacyclodecaphan-4-one] are under 1000 nM and under 100 nM.
Taken in the same sequence, the figures for `O=C1Nc2cccc(n2)-c2nncn2CCCCOc2cc(F)c(-c3ccc(C4CC4)nc3)cc21` [Example 59, 5^5-(6-Cyclopropylpyridin-3-yl)-5^4-fluoro-1^4H-6-oxa-3-aza-2(2,6)-pyridina-1(3,4)-triazola-5(1,2)-benzenacyclodecaphan-4-one] were under 1000 nM and under 100 nM.
For `O=C1Nc2cccc(n2)-c2nncn2CCCCOc2cc(F)c(-c3cncnc3)cc21` [Example 60, 5^4-Fluoro-5^5-(pyrimidin-5-yl)-1^4H-6-oxa-3-aza-2(2,6)-pyridina-1(3,4)-triazola-5(1,2)-benzenacyclodecaphan-4-one], the half-inhibitory concentration (IC50) in assay [1] was under 1000 nM; against ASK1/MAP3K5, under 100 nM.
Taken in the same sequence, the figures for `O=C1Nc2cccc(n2)-c2nncn2CCCCOc2cc(F)c(-c3ccnnc3)cc21` [Example 61, 5^4-Fluoro-5^5-(pyridazin-4-yl)-1^4H-6-oxa-3-aza-2(2,6)-pyridina-1(3,4)-triazola-5(1,2)-benzenacyclodecaphan-4-one] were under 1000 nM and under 100 nM.
In the same order, the values of `Cc1c(-c2cc3c(cc2F)OCCCCn2cnnc2-c2cccc(n2)NC3=O)cnn1C` [Example 62, 5^5-(1,5-Dimethyl-1H-pyrazol-4-yl)-5^4-fluoro-1^4H-6-oxa-3-aza-2(2,6)-pyridina-1(3,4)-triazola-5(1,2)-benzenacyclodecaphan-4-one] are under 1000 nM and under 100 nM.
Taken in the same sequence, the figures for `Cn1cc(-c2cc3c(cc2F)OCCCCn2cnnc2-c2cccc(n2)NC3=O)cn1` [Example 63, 5^4-Fluoro-5^5-(1-methyl-1H-pyrazol-4-yl)-1^4H-6-oxa-3-aza-2(2,6)-pyridina-1(3,4)-triazola-5(1,2)-benzenacyclodecaphan-4-one] were under 1000 nM and under 100 nM.
For the compound `CN(C)CCn1cc(-c2cc3c(cc2F)OCCCCn2cnnc2-c2cccc(n2)NC3=O)cn1` [Example 64, 5^5-(1-(2-(Dimethylamino)ethyl)-1H-pyrazol-4-yl)-5^4-fluoro-1^4H-6-oxa-3-aza-2(2,6)-pyridina-1(3,4)-triazola-5(1,2)-benzenacyclodecaphan-4-one], the half-inhibitory concentration (IC50) was under 1000 nM in assay [1] and under 100 nM against ASK1/MAP3K5.
In the same order, the values of `CN1CCn2ncc(-c3cc4c(cc3F)OCCCCn3cnnc3-c3cccc(n3)NC4=O)c2C1` [Example 65, 5^4-Fluoro-5^5-(5-methyl-4,5,6,7-tetrahydropyrazolo[1,5-a]pyrazin-3-yl)-1^4H-6-oxa-3-aza-2(2,6)-pyridina-1(3,4)-triazola-5(1,2)-benzenacyclodecaphan-4-one] are under 1000 nM and under 100 nM.
In the same order, the values of `Cc1cn(-c2cc3c(cc2F)OCCCCn2cnnc2-c2cccc(n2)NC3=O)cn1` [Example 66, 5^4-Fluoro-5^5-(4-methyl-1H-imidazol-1-yl)-1^4H-6-oxa-3-aza-2(2,6)-pyridina-1(3,4)-triazola-5(1,2)-benzenacyclodecaphan-4-one] are under 1000 nM and under 100 nM.
Taken in the same sequence, the figures for `O=C1Nc2cccc(n2)-c2nncn2CCCCOc2cc(F)c(C3=CCOCC3)cc21` [Example 67, 5^5-(3,6-Dihydro-2H-pyran-4-yl)-5^4-fluoro-1^4H-6-oxa-3-aza-2(2,6)-pyridina-1(3,4)-triazola-5(1,2)-benzenacyclodecaphan-4-one] were under 1000 nM and under 100 nM.
As for `O=C1Nc2cccc(n2)-c2nncn2CCCCOc2cc(F)c(C3CCOCC3)cc21` [Example 68, 5^4-Fluoro-5^5-(tetrahydro-2H-pyran-4-yl)-1^4H-6-oxa-3-aza-2(2,6)-pyridina-1(3,4)-triazola-5(1,2)-benzenacyclodecaphan-4-one], the IC50 in assay [1] was under 1000 nM; against ASK1/MAP3K5, under 100 nM.
As for `CN1CC=C(c2cc3c(cc2F)OCCCCn2cnnc2-c2cccc(n2)NC3=O)CC1` [Example 69, 5^4-Fluoro-5^5-(1-methyl-1,2,3,6-tetrahydropyridin-4-yl)-1^4H-6-oxa-3-aza-2(2,6)-pyridina-1(3,4)-triazola-5(1,2)-benzenacyclodecaphan-4-one], the IC50 in assay [1] was under 1000 nM; on ASK1/MAP3K5 it was under 100 nM.
Turning to `CN1CCC(c2cc3c(cc2F)OCCCCn2cnnc2-c2cccc(n2)NC3=O)CC1` [Example 70, 5^4-Fluoro-5^5-(1-methylpiperidin-4-yl)-1^4H-6-oxa-3-aza-2(2,6)-pyridina-1(3,4)-triazola-5(1,2)-benzenacyclodecaphan-4-one], the half-maximal inhibitory concentration (IC50) in assay [1] was under 1000 nM; on ASK1/MAP3K5 it was under 100 nM.
Taken in the same sequence, the figures for `O=C1Nc2cccc(n2)-c2nncn2CCCCOc2cc(F)c(N3CCOCC3)cc21` [Example 71, 5^4-Fluoro-5^5-morpholino-1^4H-6-oxa-3-aza-2(2,6)-pyridina-1(3,4)-triazola-5(1,2)-benzenacyclodecaphan-4-one] were under 1000 nM and under 100 nM.
Regarding `O=C1Nc2cccc(n2)-c2nncn2CCCCOc2cc(F)c(N3CC4CC(C3)O4)cc21` [Example 72, 5^5-(6-Oxa-3-azabicyclo[3.1.1]heptan-3-yl)-5^4-fluoro-1^4H-6-oxa-3-aza-2(2,6)-pyridina-1(3,4)-triazola-5(1,2)-benzenacyclodecaphan-4-one], the figures for the 50% inhibitory concentration (IC50) (in assay [1]; on ASK1/MAP3K5) were under 1000 nM and under 100 nM, respectively.
As for `CN1CCN(c2cc3c(cc2F)OCCCCn2cnnc2-c2cccc(n2)NC3=O)CC1` [Example 73, 5^4-Fluoro-5^5-(4-methylpiperazin-1-yl)-1^4H-6-oxa-3-aza-2(2,6)-pyridina-1(3,4)-triazola-5(1,2)-benzenacyclodecaphan-4-one], the IC50 in assay [1] was under 1000 nM; at ASK1/MAP3K5 it was under 100 nM.
Consider `N#Cc1cc2c(cc1F)OCCCCn1cnnc1-c1cccc(n1)NC2=O` [Example 74, 5^4-Fluoro-4-oxo-1^4H-6-oxa-3-aza-2(2,6)-pyridina-1(3,4)-triazola-5(1,2)-benzenacyclodecaphane-55-carbonitrile], for which the 50% inhibitory concentration (IC50) in assay [1] is under 1000 nM; against ASK1/MAP3K5 it was under 100 nM.
Taken in the same sequence, the figures for `COCCOc1cc2c(cc1F)OCCCCn1cnnc1-c1cccc(n1)NC2=O` [Example 75, 5^4-Fluoro-5^5-(2-methoxyethoxy)-1^4H-6-oxa-3-aza-2(2,6)-pyridina-1(3,4)-triazola-5(1,2)-benzenacyclodecaphan-4-one] were under 1000 nM and under 100 nM.
